Experimental data: ChEMBL document CHEMBL3885861, “Open TG-GATES”

Species on record: Rattus norvegicus
Assay: Open TG-GATES - Regimen: Single
Assay type: toxicity, organism-based, Sprague-Dawley
Set-up: regimen Single, gender Male, age 6 weeks
Details: in vivo, po, 2 mg/kg, route gavage, dose level Middle; for APTT / Bas / Eos / Fbg / Hb / Ht / Lym / MCH / MCHC / MCV / Mono / Neu / PT / Plat / RBC / Ret / WBC: tissue Blood; for KIDNEY_L / KIDNEY_R / KIDNEY_TOTAL: tissue Kidney; for LIVER: tissue Liver; for A/G / ALP / ALT / AST / BUN / CRE / Ca / Cl / DBIL / GLC / IP / K / LDH / Na / PL / RALB / TBIL / TC / TG / TP / gamma-GTP: tissue Plasma

## O=NN(CCCl)C(=O)NC1CCCCC1 [LOMUSTINE]
3 h
  TERMINAL_BW: 208.7 g
  APTT: 16.4 s
  Bas: 0%
  Eos: 0.4%
  Fbg: 227.8 mg/dL
  Hb: 12.8 g/dL
  Ht: 38.3%
  Lym: 81.8%
  MCH: 22.5 pg
  MCHC: 33.4%
  MCV: 67.4 fL
  Mono: 7.2%
  Neu: 10.2%
  PT: 11.6 s
  Plat: 102.8 x10_4/uL
  RBC: 568.2 x10_4/ul
  Ret: 9.5%
  WBC: 127.7 x10_2/uL
  KIDNEY_L: 0.9 g
  KIDNEY_R: 1 g
  KIDNEY_TOTAL: 1.9 g
  LIVER: 10 g
  A/G: 1.8
  ALP: 890.2 IU/L
  ALT: 35.6 IU/L
  AST: 70.8 IU/L
  BUN: 14.2 mg/dL
  CRE: 0.5 mg/dL
  Ca: 11.4 mg/dL
  Cl: 104.8 meq/L
  DBIL: 0.052 mg/dL
  GLC: 187.6 mg/dL
  IP: 9.9 mg/dL
  K: 4.6 meq/L
  LDH: 104.6 IU/L
  Na: 139.4 meq/L
  PL: 127.4 mg/dL
  RALB: 3.5 g/dL
  TBIL: 0.3 mg/dL
  TC: 75.8 mg/dL
  TG: 41.4 mg/dL
  TP: 5.5 g/dL
  gamma-GTP: 1.4 IU/L
6 h
  TERMINAL_BW: 201.7 g
  APTT: 16.8 s
  Bas: 0%
  Eos: 0.2%
  Fbg: 217.4 mg/dL
  Hb: 13.5 g/dL
  Ht: 40.4%
  Lym: 84.2%
  MCH: 21.9 pg
  MCHC: 33.4%
  MCV: 65.6 fL
  Mono: 4.2%
  Neu: 11.4%
  PT: 12.2 s
  Plat: 103.8 x10_4/uL
  RBC: 616.2 x10_4/ul
  Ret: 9.4%
  WBC: 137.8 x10_2/uL
  KIDNEY_L: 1 g
  KIDNEY_R: 1 g
  KIDNEY_TOTAL: 1.9 g
  LIVER: 8.7 g
  A/G: 1.9
  ALP: 941.6 IU/L
  ALT: 33.6 IU/L
  AST: 66.8 IU/L
  BUN: 11.6 mg/dL
  CRE: 0.5 mg/dL
  Ca: 11 mg/dL
  Cl: 104.2 meq/L
  DBIL: 0.02 mg/dL
  GLC: 187.6 mg/dL
  IP: 10.8 mg/dL
  K: 5 meq/L
  LDH: 80.8 IU/L
  Na: 141.2 meq/L
  PL: 140 mg/dL
  RALB: 3.5 g/dL
  TBIL: 0.3 mg/dL
  TC: 79.6 mg/dL
  TG: 49.2 mg/dL
  TP: 5.5 g/dL
  gamma-GTP: 1.8 IU/L
9 h
  TERMINAL_BW: 198 g
  APTT: 17 s
  Bas: 0%
  Eos: 0.8%
  Fbg: 226 mg/dL
  Hb: 13.1 g/dL
  Ht: 40.1%
  Lym: 78.6%
  MCH: 21.4 pg
  MCHC: 32.7%
  MCV: 65.6 fL
  Mono: 6.2%
  Neu: 14.6%
  PT: 12.2 s
  Plat: 103.3 x10_4/uL
  RBC: 611.2 x10_4/ul
  Ret: 8.8%
  WBC: 71.6 x10_2/uL
  KIDNEY_L: 0.9 g
  KIDNEY_R: 0.9 g
  KIDNEY_TOTAL: 1.8 g
  LIVER: 8.4 g
  A/G: 2.3
  ALP: 731 IU/L
  ALT: 28.6 IU/L
  AST: 67.6 IU/L
  BUN: 11 mg/dL
  CRE: 0.5 mg/dL
  Ca: 10.7 mg/dL
  Cl: 105.4 meq/L
  DBIL: 0.024 mg/dL
  GLC: 191 mg/dL
  IP: 10.8 mg/dL
  K: 5 meq/L
  LDH: 93.8 IU/L
  Na: 139.4 meq/L
  PL: 136.2 mg/dL
  RALB: 3.9 g/dL
  TBIL: 0.3 mg/dL
  TC: 81.6 mg/dL
  TG: 30.8 mg/dL
  TP: 5.5 g/dL
  gamma-GTP: 1.8 IU/L
24 h
  TERMINAL_BW: 218.8 g
  APTT: 16.9 s
  Bas: 0%
  Eos: 0.4%
  Fbg: 207.4 mg/dL
  Hb: 12.8 g/dL
  Ht: 38.5%
  Lym: 80.2%
  MCH: 22.3 pg
  MCHC: 33.3%
  MCV: 67.1 fL
  Mono: 7%
  Neu: 12.6%
  PT: 12.1 s
  Plat: 96.4 x10_4/uL
  RBC: 574.2 x10_4/ul
  Ret: 9.1%
  WBC: 121.6 x10_2/uL
  KIDNEY_L: 1 g
  KIDNEY_R: 1 g
  KIDNEY_TOTAL: 2 g
  LIVER: 11.1 g
  A/G: 2.3
  ALP: 839.8 IU/L
  ALT: 38.8 IU/L
  AST: 62.4 IU/L
  BUN: 16.8 mg/dL
  CRE: 0.5 mg/dL
  Ca: 11.3 mg/dL
  Cl: 104.4 meq/L
  DBIL: 0.038 mg/dL
  GLC: 195.8 mg/dL
  IP: 8.7 mg/dL
  K: 4.8 meq/L
  LDH: 87.4 IU/L
  Na: 137.8 meq/L
  PL: 157.2 mg/dL
  RALB: 4 g/dL
  TBIL: 0.3 mg/dL
  TC: 86.8 mg/dL
  TG: 80.6 mg/dL
  TP: 5.7 g/dL
  gamma-GTP: 1.4 IU/L
